Source: patent US9645128B2, “Substituted imidazo[1,2-A]pyrazines for measuring a transcription activity” (JNC CORPORATION, priority 2009, dated 2017)

Columns and labels:
Gaussia luciferase = assay: Substrate specificity, luminescence activity and emission spectra of Gaussia luciferase; conditions: for Luminescence activity Imax (%) / Luminescence capacity 10 secs. (%): Gaussia luciferase, coelenterazine = 100.0
Experimental: The luminescence activity was measured for 10 seconds using a luminometer Luminescencer-PSN AB2200 (manufactured by Atto Co., Ltd.). The luminescence activity was measured 3 times and expressed as the maximum intensity (Imax) of luminescence.

recombinant apoaequorin [1] = molecular target: T1, recombinant apoaequorin (Aequorea victoria, UniProt P07164); assay: Calcium standard curve with semi-synthetic aequorins; type: biochemical; design: purchased Chisso Corporation; conditions: Imax versus 10^-3 M to 10^-8 M calcium
T1 sequence (P07164 other isoform, or with tags, fused parts or gaps with the stated changes): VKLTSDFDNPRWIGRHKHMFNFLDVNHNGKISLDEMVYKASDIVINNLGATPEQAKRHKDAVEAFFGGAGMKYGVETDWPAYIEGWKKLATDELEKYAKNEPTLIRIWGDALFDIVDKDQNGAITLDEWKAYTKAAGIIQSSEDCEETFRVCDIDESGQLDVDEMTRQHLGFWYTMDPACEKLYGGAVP
Experimental: The dilution series was prepared by the serial process above to prepare standard calcium solution of 10^−3 M to 10^−8 M.
The semi-synthetic aequorin obtained was concentrated using Amicon Ultra-4 (manufactured by Millipore, molecular weight cut off, 10.000).
This semi-synthetic aequorin solution (2.5 mg/ml) was diluted with 20 mM Tris-HCl (pH 7.6) containing 0.1% BSA (manufactured by Sigma), 0.01 mM EDTA and 150 mM NaCl.
The calcium standard solution prepared as described above was dispensed into a 96-well microplate (Nunc #236108) in 50 μl/well, and the semi-synthetic aequorin solution diluted was injected in […]. The luminescence intensity was measured for 60 seconds using a luminescence plate reader Centro LB960 (manufactured by Berthold) and expressed in terms of the maximum luminescence intensity (Imax). The luminescence intensity was measured for each semi-synthetic aequorin in the same fashion. Based on the maximum luminescence intensity (Imax) obtained, the calcium standard curve for each semi-synthetic aequorin was prepared.

[2] = molecular target: T2, 19 kDa protein of Oplophorus luciferase (Oplophorus gracilirostris, UniProt Q9GV45); assay: Substrate specificity, luminescence activity and emission spectra of the 19 kDa protein of Oplophorus luciferase; type: biochemical, Oplophorus gracilorostris; conditions: for Maximum emission wavelength λmax (nm) / Luminescence activity and/or capacity compared to known h-CTZ / Luminescence capacity 10 secs. (%) / Luminescence activity Imax (%): Oplophorus luciferase; for Maximum emission wavelength λmax (nm): 22 to 25° C.; for Luminescence activity and/or capacity compared to known h-CTZ / Quality as luminescence substrate for Oplophorus luciferase: TABLE 2; for Luminescence capacity 10 secs. (%): emission integrated for 10 seconds; for Luminescence capacity 10 secs. (%) / Luminescence activity Imax (%): coelenterazine = 100.0
T2 construct: made in house
T2 sequence (Q9GV45 28-196): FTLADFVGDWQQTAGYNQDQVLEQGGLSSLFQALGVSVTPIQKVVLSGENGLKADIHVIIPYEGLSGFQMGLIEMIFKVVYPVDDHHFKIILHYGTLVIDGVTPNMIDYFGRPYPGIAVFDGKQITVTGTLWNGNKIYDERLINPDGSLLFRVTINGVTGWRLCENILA

recombinant apoaequorin [3] = molecular target: T1, recombinant apoaequorin; assay: Luminescence patterns and half decay time of semi-synthetic aequorins; type: biochemical; design: purchased Chisso Corporation; conditions: semi-synthetic aequorin; time to reach half of the maximum luminescence intensity
Experimental: The dilution was dispensed into a 96-well microplate (Nunc #236108) in 5 μl/well. […] The luminescence patterns for 60 seconds were measured to determine the half decay time of luminescence (time period to reach the half of the maximum luminescence intensity).

Renilla luciferase = molecular target: T3, Renilla luciferase (Renilla reniformis, UniProt P27652); assay: Substrate specificity, luminescence activity and emission spectra of Renilla luciferase; type: biochemical; conditions: for Maximum emission wavelength λmax (nm) / Luminescence activity Imax (%) / Luminescence capacity 10 secs. (%): Renilla luciferase; for Maximum emission wavelength λmax (nm): 22 to 25° C.; for Luminescence activity Imax (%) / Luminescence capacity 10 secs. (%): coelenterazine = 100.0
T3 construct: made in house
T3 sequence (P27652 1-311): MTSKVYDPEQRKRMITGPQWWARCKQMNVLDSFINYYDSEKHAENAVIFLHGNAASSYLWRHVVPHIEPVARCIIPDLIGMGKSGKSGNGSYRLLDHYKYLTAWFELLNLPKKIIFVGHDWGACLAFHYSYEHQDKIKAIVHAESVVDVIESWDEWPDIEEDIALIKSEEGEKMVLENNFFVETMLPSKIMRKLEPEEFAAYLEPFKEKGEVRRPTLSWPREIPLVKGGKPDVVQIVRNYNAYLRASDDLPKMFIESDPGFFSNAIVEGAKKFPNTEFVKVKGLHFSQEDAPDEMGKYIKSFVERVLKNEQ
Text: Res. Commun. (1997) 233: 349-353, which was provided for use.

recombinant apoaequorin [4] = molecular target: T1, recombinant apoaequorin; assay: Production of semi-synthetic aequorins and measurement of luminescence activity (Imax, luminescence capacity); conditions: regeneration 0.5 to 18 hours at 4° C.
Experimental: In order to confirm the regeneration time and regeneration efficiency from apoaequorin to the semi-synthetic aequorin, the luminescence activity was assayed at the respective points of the regeneration process (at the respective points of 0.5, 1, 1.5, 2, 3 and 18 hours from the start of regeneration).
Specifically, the luminescence activity described above was measured as follows. The luminescence reaction was started by adding 100 μl of 50 mM Tris-HCl (pH 7.6) containing 50 mM calcium chloride solution to 2 μl of a solution of the semi-synthetic aequorin at each regeneration process. The luminescence activity was measured for 10 seconds with a luminometer Luminescencer-PSN AB2200 (manufactured by Atto Co., Ltd.). The measured values were represented as the maximum intensity (Imax) of luminescence. The emission for 60 seconds was integrated, which was made a luminescence capacity.

recombinant apoaequorin [5] = molecular target: T1, recombinant apoaequorin; assay: Emission spectra of semi-synthetic aequorins by addition of calcium ions; conditions: for Emission spectra of semi-synthetic aequorins compared with known analogs (FIG. 3): compared to h-CTZ and i-CTZ; for Maximum emission wavelength λmax (nm): semi-synthetic aequorin, 22 to 25° C.
Experimental: In a quartz cell with an optical path length of 10 mm, 1 ml of 50 mM Tris-HCl (pH 7.6) containing 1 mM EDTA and 100 μl (100 μg protein) of a solution of the regenerated semi-synthetic aequorin were charged and they were mixed. Subsequently, 100 μl of 50 mM Tris-HCl (pH 7.6) containing 0.1 ml of 10 mM calcium chloride solution was added to the mixture to trigger the luminescence reaction. The spectra were measured on a spectrofluorimeter (FP-6500, manufactured by JASCO Corporation) with the excitation source turned off. The measurement conditions used were as follows: band width, 20 nm; response, 0.5 second and scan speed, 2000 nm/min at 22 to 25° C.

Compound	Luminescence activity Imax (%) (Gaussia luciferase)	Luminescence capacity 10 secs. (%) (Gaussia luciferase)	Calcium standard curve with semi-synthetic aequorin (FIG. 4) (recombinant apoaequorin [1])	Maximum emission wavelength λmax (nm) [2] [nm]	Luminescence activity and/or capacity compared to known h-CTZ [2]	Luminescence capacity 10 secs. (%) [2] [%]	Luminescence activity Imax (%) [2] [%]	Quality as luminescence substrate for Oplophorus luciferase [2]	Half decay time sec. (recombinant apoaequorin [3]) [s]	Maximum emission wavelength λmax (nm) (Renilla luciferase)	Luminescence activity Imax (%) (Renilla luciferase)	Luminescence capacity 10 secs. (%) (Renilla luciferase)	Ability to act as luminescence substrate for semi-synthetic aequorins (FIG. 1) (recombinant apoaequorin [4])	Emission spectra of semi-synthetic aequorins compared with known analogs (FIG. 3) (recombinant apoaequorin [5])	Maximum emission wavelength λmax (nm) (recombinant apoaequorin [5])	melting point	Quality as luminescence substrate for Gaussia luciferase (Gaussia luciferase; TABLE 3)	Ability to act as substrate for Renilla luciferase (Renilla luciferase; TABLE 4)
Cc1cccc(Cc2nc3c(Cc4ccccc4)[nH]c(-c4ccc(O)cc4)cn-3c2=O)c1 [3me-CTZ, 3me-coelenterazine]	2.6	2.1	calcium standard curves can be prepared	455.5	high luminescence activity and/or luminescence capacity	122.8	80.0	relatively good luminescence substrates	0.51	471.5	12.7	13.1	can be luminescence substrates for semi-synthetic aequorins	exhibit different emission spectra from those of known coelenterazine analogs	466.0	142 to 145 °C (dec.)	–	–
CC(c1ccccc1)c1nc2c(Cc3ccccc3)[nH]c(-c3ccc(O)cc3)cn-2c1=O (centres unmarked) [αmeh-CTZ, αmeh-coelenterazine]	>0.01	>0.01	calcium standard curves can be prepared	457.0	–	19.0	15.6	relatively good luminescence substrates	0.35	–	0.0	0.0	can be luminescence substrates for semi-synthetic aequorins	–	467.5	143 to 145 °C (dec.)	–	–
O=c1c(Cc2cccc(O)c2)nc2c(Cc3ccccc3)[nH]c(-c3ccc(O)cc3)cn1-2 [3iso-CTZ, 3-isocoelenterazine]	14.3	7.4	calcium standard curves can be prepared	458.0	high luminescence activity and/or luminescence capacity	71.8	78.2	relatively good luminescence substrates	0.24	472.0	25.7	27.5	can be luminescence substrates for semi-synthetic aequorins	exhibit different emission spectra from those of known coelenterazine analogs	464.0	160 to 162 °C (dec.)	effective luminescence substrates	can be substrates for Renilla luciferase
